# Legend:
# [1] = UPLC-MS/MS pharmacokinetic analyses in tumour, liver and plasma; type: in vivo, BALB/c nude mice; conditions: within 1 h after i.v. 50 mg kg^−1 2
# Procedure: For in vivo prodrug activation, mice received an i.v. injection of 50 mg kg^−1 2 and a subsequent 30 mg kg^−1 TCO-Dox after a 2-h interval. After different time intervals, blood samples were collected from the tail veins, and then, the tumours and livers were harvested for UPLC-MS/MS analysis.
# UPLC-MS/MS analyses: UPLC-MS/MS metabolomic analyses were performed using a
# multiple reaction-monitoring mode (MRM). Data acquisition and processing were performed using LabSolutions version 5 software. Measurements were carried out at
# Dox, solvent A consisted of 0.1% formic acid in water and solvent B consisted of 0.1% formic acid in mass spectrometric grade acetonitrile; (2) for compound TCO-Dox, solvent A consisted of 100% water and solvent B consisted of 100% mass spectrometric grade acetonitrile. Injection volume was 2 or 10 L. The mass spectrometer was interfaced with the liquid chromatograph using an electrospray ion source. The nitrogen nebulizing gas flow was set at 10 L min-1 and the drying gas flow at 15 mL min-1. 4500 V were used for the interface voltage. The temperature of the block heater was maintained at 400 °C and the one of the desolvation line at 250 °C. The MRM transitions were
# Dox. The collision gas used was argon at 230 kPa. The dwell time was set to 100 msec and the pause time to 3 msec.
# Sample preparation: blood samples were collected from the tail vein of mice. Plasma […]
# HUVECs = assay: MTT cell viability / cytotoxicity assay, HUVECs; type: cell-based; conditions: Homo sapiens, HUVEC, 72 h cytotoxicity, MTT; Activated Dox: cells pre-incubated with 500 μM 2 for 6 h, then TCO-Dox 72 h; read-out: EC50, HUVECs
# Procedure: (§1) Cells were plated in flat-bottom 96-well plates at a density of 3 × 10^3 cells per well. After 12 h of cell attachment, the cell culture medium was replaced with 100 μL of pre-warmed media containing the compounds at different concentrations. After 24–72 h of incubation, cell proliferation was assessed by the MTT assay. A fresh mixture of 10 μL of thiazolyl blue tetrazolium bromide (MTT) and 90 μL of medium were freshly added to each well. After incubation for 4 h, the medium was gently removed. The formazan crystals that formed were dissolved in 110 μL of DMSO, and the absorbance was subsequently measured with a plate reader (Perkin Elmer) at 490 nm. EC50 values were calculated using Origin software. To measure the cytotoxicity of 2, HeLa cells, HUVECs, Saos-2 cells and CCC-HEH-2 cells were incubated with 100 μL of 1–500 μM 2 for 24 h, and then, cell viability was determined. To measure the cytotoxicity of TCO-Dox or Dox, HeLa cells, HUVECs, Saos-2 cells or CCC-HEH-2 cells were incubated with 200 μL of 0.001–10 μM TCO-Dox or Dox for 72 h, and the cell viability was determined. To determine the cytotoxicity of activated Dox, HeLa cells, HUVECs, […], and then, 2 was removed and 200 μL of 0.0001–10 μM TCO-Dox was added for 72 h of incubation, and cell viability was determined. […]
# (§2) Prodrug activation efficacy in cells: Cells were plated on flat bottom 96-well plates at a
# (§3) density of 3x10^3 cells per well. After 12 h attachment, cells were incubated with 100 µL
# (§4) 500 µM of 2 for 6 h before removing 2 and the addition of 200 µL 0.0001-10 µM of […]
# Saos-2 cells = assay: MTT cell viability / cytotoxicity assay, Saos-2 cells; type: cell-based
# Procedure: (§5) Cells were plated in flat-bottom 96-well plates at a density of 3 × 10^3 cells per well. After 12 h of cell attachment, the cell culture medium was replaced with 100 μL of pre-warmed media containing the compounds at different concentrations. After 24–72 h of incubation, cell proliferation was assessed by the MTT assay. A fresh mixture of 10 μL of thiazolyl blue tetrazolium bromide (MTT) and 90 μL of medium were freshly added to each well. After incubation for 4 h, the medium was gently removed. The formazan crystals that formed were dissolved in 110 μL of DMSO, and the absorbance was subsequently measured with a plate reader (Perkin Elmer) at 490 nm. EC50 values were calculated using Origin software. To measure the cytotoxicity of 2, HeLa cells, HUVECs, Saos-2 cells and CCC-HEH-2 cells were incubated with 100 μL of 1–500 μM 2 for 24 h, and then, cell viability was determined. To measure the cytotoxicity of TCO-Dox or Dox, HeLa cells, HUVECs, Saos-2 cells or CCC-HEH-2 cells were incubated with 200 μL of 0.001–10 μM TCO-Dox or Dox for 72 h, and the cell viability was determined. To determine the cytotoxicity of activated Dox, HeLa cells, HUVECs, Saos-2 cells or CCC-HEH-2 cells were pre-incubated with 100 μL of 500 μM 2 for 6 h, and then, 2 was removed and 200 μL of 0.0001–10 μM TCO-Dox was added for 72 h of incubation, and cell viability was determined. […]
# Prodrug activation efficacy in cells: Cells were plated on flat bottom 96-well plates at a density of 3x10^3 cells per well. After 12 h attachment, cells were incubated with 100 µL 500 µM of 2 for 6 h before removing 2 and the addition of 200 µL 0.0001-10 µM of TCO-Dox. Cells were further incubated for 72 h before measuring the viability by the MTT […]
# Clonogenic assay of cells in vitro: Clonogenic assay was performed according to the standard protocol.6 2×10^5 attached cells were treated with 500 µM of 2 for 6 h in culture dishes. Cells were then detached, re-suspended in cultural medium and counted accurately. The cell suspension was diluted into the desired seeding concentration and cells were seeded in 6-well plates at a density of 200 cells per well for CCC-HEH-2 and 400 cells per well for HeLa, Saos-2 and HUVECs. After incubation for 10 days, the cultural medium was removed and cells were rinsed carefully with PBS. 2 mL of a mixture of 6.0% (vol/vol) glutaraldehyde and 0.5% (wt/vol) crystal violet was added and kept for 30 min.
# The glutaraldehyde crystal violet mixture was removed carefully. The colonies were rinsed with water and dried in normal air at room temperature. The number of the colonies was counted using a stereomicroscope.
# When untreated cells are plated as a single-cell suspension at low densities, they will grow to colonies. The plating efficiency (PE) is the ratio of the number of colonies to the […]
# (Supplementary Equation 1)
# The number of colonies that arise after treatment of cells, expressed in terms of PE, is called the surviving fraction (SF): […]
# HeLa cells [2] = assay: MTT cell viability / cytotoxicity assay, HeLa cells; type: cell-based
# Procedure: as §1, §2, §3, §4
# [3] = Systemic toxicity in treated mice (body weight, death, organ histology)
# Procedure: When the tumour volume reached approximately 80–100 mm^3, the mice were divided into five groups (n = 8) and used for therapeutic studies. Mice in the treatment group received an i.v. injection of 50 mg kg^−1 2 and a subsequent 30 mg kg^−1 TCO-Dox after a 2-h interval. In the control groups, mice were received 50 mg kg^−1 2, 30 mg kg^−1 TCO-Dox, 5 mg kg^−1 Dox or saline. The mice received three treatment courses on day 0, day 3 and day 6. Tumour size and body weight were measured every 2 days. After 14 days, the mice were sacrificed. Tumours and main organs were obtained for histological examination with HE staining.
# Effect of the dosage of Dox to the mice body weight.
# The arrows on x-axis marked the administrations of Dox (n= 8).
# indicate standard deviation.
# Histological examination of heart, liver, spleen, lung and
# Organs were harvested after treatment at day 14 and stained by hematoxylin and
# CCC-HEH-2 cells = assay: MTT cell viability / cytotoxicity assay, CCC-HEH-2 cells; type: cell-based; conditions: Homo sapiens; 72 h cytotoxicity, MTT; Activated Dox: cells pre-incubated with 500 μM 2 for 6 h, then TCO-Dox 72 h; read-out: EC50, CCC-HEH-2
# Procedure: as §5
# HeLa tumours = assay: Tumour inhibition test, subcutaneous HeLa xenograft; type: in vivo, BALB/c nude mice; conditions: i.v., three courses (day 0, 3, 6); 50 mg kg^−1 2, 30 mg kg^−1 TCO-Dox, 5 mg kg^−1 Dox, or 50 mg kg^−1 2 then 30 mg kg^−1 TCO-Dox after 2 h
# Procedure: All animal studies were performed in accordance with the Institutional Animal Use and Care Regulations approved by the National Institutes of Health Clinical Center/Animal Care and Use Committee (NIH CC/ACUC). Athymic female nude mice (5–6 weeks old) were purchased from Beijing Huafukang Bioscience Co., Ltd., and raised in a specific-pathogen-free barrier facility. Tumour-bearing mice were established by subcutaneously injecting a suspension of 10^6 HeLa cells per mouse into the front flank of each nude mouse.
# After 14 days, the mice were sacrificed.
# HeLa cells [4] = assay: Intracellular Tz accumulation by fluorescence liberation from TCO-CMR, HeLa cells; type: cell-based; conditions: 50 or 500 μM Tz-COOH for 6 h, then 50 μM TCO-CMR 1-24 h
# Procedure: Next, we tested the intracellular accumulation of Tz via EISA in an attempt to differentiate cancer cells from normal cells. First, we investigated the accumulation of Tz in HeLa cells and HUVECs over time via fluorescence liberation from TCO-CMR (Fig. 3a). […] The cells were then washed with PBS thoroughly before the addition of an excessive amount of TCO-CMR (100 μL, 50 μM), and the reaction of TCO-CMR with the intracellular accumulated Tz was allowed to proceed for up to 24 h (Supplementary Fig. 8). In this experimental setting, the total liberated fluorescence was proportional to the amount of 3 accumulated inside the cells. […] Therefore, the optimized concentration of 2 (e.g. 500 μM) and incubation time (e.g. 6 h) were selected to differentiate between cancer and normal cells according to liberated fluorescence intensity (Fig. 3c). This differentiation was dependent on the considerably different phosphatase activity between these cell lines (Supplementary Fig. 11), allowing EISA to specifically occur in cancer cells as opposed to normal cells.
# All cells were purchased from the National Infrastructure of Cell Line Resource (Beijing, China). HeLa cells, HUVECs and CCC-HEH-2 cells were cultured in a humidified CO2 (5%) incubator at 37 °C in DMEM supplemented with 10% foetal bovine serum (FBS, Gibco) and 1% Pen Strep (PS, Gibco). Saos-2 cells were cultured in a humidified CO2 (5%) incubator at 37 °C in McCoy’s 5A medium supplemented with 10% FBS and 1% PS. Cells were plated in flat-bottom 96-well plates (Corning) at a density of 10^4 cells per well and allowed to attach for 12 h. Then, the culture medium was replaced with 100 μL of pre-warmed medium containing 2 at different concentrations (100–500 μM). After incubation for different durations (1–24 h), the cells were rinsed with PBS, and then 100 μL of 50 μM TCO-CMR (dissolved in PBS) was added for real-time detection of the fluorescence intensity of coumarin in a plate reader (Perkin Elmer).
# [5] = Self-assembly and hydrogelation on addition of alkaline phosphatase (ALP); type: physicochemical; conditions: after addition of 10 U mL^−1 ALP (dephosphorylated product)
# Procedure: The synthesis of the assembly precursor (NapK(Tz)YpF, 2, Fig. 2a) was straightforward (see Supplementary Methods for a detailed protocol). Because KYF was determined to be an excellent self-assembly motif in a tri-peptide census survey, we constructed our assembling molecules based on this sequence. The conjugation of a strong π–π stacking moiety, namely, a naphthalene group, to the N terminus may further enhance the self-assembly potential of this molecule. Phosphorylation on tyrosine (Y) enabled the responsiveness of this motif to phosphatase. All of these components were sequentially conjugated via typical Fmoc-based solid-phase peptide synthesis (SPPS) to yield NapKYpF (1). The capability of self-assembly and hydrogelation of 1 was confirmed by the addition of 10 U mL^−1 alkaline phosphatase (ALP) into a solution of 1 (Supplementary Fig. 1). The dephosphorylated product of 1 formed transparent hydrogels with a network of uniform nanofibres (Supplementary Fig. 2), and the critical hydrogelation concentration was 1.0 mg mL^−1. The ε-amine of Lys on 1 was conjugated with the Tz derivative Tz-COOH (2-(4-(6-methyl-1,2,4,5-tetrazin-3-yl)phenyl) acetic acid) via an NHS-mediated ester–amide exchange reaction to yield 2. […] Upon the addition of ALP (10 U mL^−1) into the solution of 2, a transparent purple hydrogel was formed within 1 h (Fig. 2b inset), and the critical hydrogelation concentration was 1.0 mg mL^−1 (Supplementary Fig. 3). Similar to the formation of a typical hydrogel, investigation by transmission electron microscopy (TEM) confirmed the existence of numerous uniform nanofibres, each with a diameter of approximately 12 nm, which was close to that of hydrogel 1 (Fig. 2b).
smiles,measurement,setting,value
"Cc1nnc(-c2ccc(CC(=O)NCCCCC(NC(=O)Cc3ccc4ccccc4c3)C(=O)NC(Cc3ccc(O)cc3)C(=O)NC(Cc3ccccc3)C(=O)O)cc2)nn1 (stereo not drawn) [compound 3, NapK(Tz)YF]",concentration in tumours,[1],increased significantly within 1 h
"COc1cccc2c1C(=O)c1c(O)c3c(c(O)c1C2=O)C[C@@](O)(C(=O)CO)C[C@@H]3O[C@H]1C[C@H](N)[C@H](O)[C@H](C)O1 [Dox, doxorubicin, reference compound]",EC50,HUVECs,133 nM
same,EC50,"Saos-2 cells; Homo sapiens, SAOS-2, 72 h cytotoxicity, MTT, Activated Dox: cells pre-incubated with 500 μM 2 for 6 h, then TCO-Dox 72 h, read-out: EC50, Saos-2",425 nM
same,EC50 ratio CCC-HEH-2/Saos-2,Saos-2 cells; ratio of 72 h EC50 values,0.198
same,EC50 ratio HUVECs/Saos-2,Saos-2 cells; ratio of 72 h EC50 values,0.313
same,EC50,"HeLa cells [2]; Homo sapiens, HeLa, 72 h cytotoxicity, MTT, Activated Dox: cells pre-incubated with 500 μM 2 for 6 h, then TCO-Dox 72 h, read-out: EC50, HeLa",732 nM
same,EC50 ratio CCC-HEH-2/HeLa,HeLa cells [2]; ratio of 72 h EC50 values,0.115
same,EC50 ratio HUVECs/HeLa,HeLa cells [2]; ratio of 72 h EC50 values,0.182
same,death of mice,[3]; 6.0 mg kg-1 Dox,the mice began to die eleven day
same,death of mice,[3]; 7.5 mg kg-1 Dox,the mice began to die six
same,death of mice,[3]; 15 mg kg-1 Dox,the mice died within five days
same,EC50,CCC-HEH-2 cells,84 nM
same,tumour growth,HeLa tumours,tumour growth could be inhibited
"Cc1nnc(-c2ccc(CC(=O)O)cc2)nn1 [Tz-COOH, 2-(4-(6-methyl-1,2,4,5-tetrazin-3-yl)phenyl) acetic acid, reference compound]",accumulation in HeLa cells,HeLa cells [4],hardly accumulated
"NCCCCC(NC(=O)Cc1ccc2ccccc2c1)C(=O)NC(Cc1ccc(OP(=O)(O)O)cc1)C(=O)NC(Cc1ccccc1)C(=O)O (stereo not drawn) [compound 1, NapKYpF]",critical hydrogelation concentration,[5],1.0 mg/mL

# — paper PMC6261997, “Synergistic enzymatic and bioorthogonal reactions for selective prodrug activation in living systems” (Nature Communications, 2018)
